# Measurements reported in patent publication US8466188B2, “Use of spiro-oxindole compounds as therapeutic agents” (Xenon Pharmaceuticals Inc., priority 2006, dated 2013).
# What was measured:
# sodium channel = test: Guanidine influx assay (14C-guanidine radiotracer flux) in a known cell line that expresses a sodium channel; type: cell-based, human or rat
# Source text: This example describes an in vitro assay for testing and profiling test agents against human or rat sodium channels stably expressed in cells of either an endogenous or recombinant origin.
# The guanidine influx assay is a radiotracer flux assay used to determine ion flux activity of sodium channels in a high-throughput microplate-based format. The assay uses ^14C-guanidine hydrochloride in combination with various known sodium channel modulators, to assay the potency of test agents. Potency is determined by an IC50 calculation. Selectivity is determined by comparing potency of the compound for the channel of interest to its potency against other sodium channels (also called ‘selectivity profiling’).
# Each of the test agents is assayed against cells that express the sodium channel of interest. Voltage gated sodium channels are either TTX sensitive or insensitive. This property is useful when evaluating the activities of a channel of interest when it resides in a mixed population with other sodium channels. The following Table 1 lists certain cell lines which are useful in screening for a certain sodium channel activity in the presence or absence of TTX.
# It is also possible to employ recombinant cells expressing these sodium channels.
# Cells expressing the channel of interest are grown according to the supplier or in the case of a recombinant cell in the presence of selective growth media such as G418 (Gibco/Invitrogen). The cells are disassociated from the culture dishes with an enzymatic solution (1×) Trypsin/EDTA (Gibco/Invitrogen) and analyzed for density and viability using haemocytometer (Neubauer). Disassociated cells are washed and resuspended in their culture media then plated into Scintiplates (Beckman Coulter Inc.) (approximately 100,000 cells/well) and incubated at 37° C./5% CO2 for 20-24 hours. After an extensive wash with Low sodium HEPES-buffered saline solution (LNHBSS) (150 mM Choline Chloride, […] (Sigma), 1 mM Calcium Chloride, 5 mM Potassium Chloride, 1 mM Magnesium Chloride, 10 mM Glucose) agents diluted with LNHBSS are added to each well. (Varying concentrations of test agent may be used). The activation/radiolabel mixture contains aconitine (Sigma), and ^14C-guanidine hydrochloride (ARC).
# After loading the cells with test agent and activation/radiolabel mixture, the Scintiplates are incubated at ambient temperature. Following the incubation, the Scintplates are extensively washed with LNHBSS supplemented with guanidine (Sigma). The Scintiplates are dried and then counted using a Wallac MicroBeta TriLux (Perkin-Elmer Life Sciences). The ability of the test agent to block sodium channel activity is determined by comparing the amount of ^14C-guanidine present inside the cells expressing the different sodium channels.
# IC50 value of a test agent for a specific sodium channel may be determined using the above general method. […] The IC50 curve is calculated using the 4 Parameter Logistic Model or Sigmoidal Dose-Response Model formula (fit=(A+((B−A)/(1+((C/x)^D)))).
# The fold selectivity, factor of selectivity or multiple of selectivity, is calculated by dividing the IC50 value of the test sodium channel by the reference sodium channel, for example, Nav1.5.
# The Example numbers provided in Table 2 correspond to the Example numbers herein: […]
SMILES,IC50 (sodium channel),melting point
"O=C1N(CCC2CC2)c2ccccc2C12COc1cc3c(cc12)OCO3 (centres unmarked) [Example 1, 1′-(2-cyclopropylethyl)spiro[furo[2,3-f][1,3]benzodioxole-7,3′-indol]-2′(1′H)-one]",1 to 10 nM,125 to 127 °C
"O=C(Nc1cccc(F)c1)c1ccc(CN2C(=O)C3(COc4cc5c(cc43)OCO5)c3ccccc32)cc1 (centres unmarked) [Example 12, N-(3-fluorophenyl)-4-[(2′-oxospiro[furo[2,3-f][1,3]benzodioxole-7,3′-indol]-1′(2′H)-yl)methyl]benzamide]",100 to 1000 nM,
"O=C1N(CCCO)c2ccccc2C12COc1cc3c(cc12)OCO3 (centres unmarked) [Example 13, 1′-(3-hydroxypropyl)spiro[furo[2,3-f][1,3]benzodioxole-7,3′-indol]-2′(1′H)-one]",10 to 100 nM,
"O=C1N(CCCNCC2CC2)c2ccccc2C12COc1cc3c(cc12)OCO3 (centres unmarked) [Example 15, 1′-{3-[(cyclopropylmethyl)amino]propyl}spiro[furo[2,3-f][1,3]benzodioxole-7,3′-indol]-2′(1′H)-one]",> 1000 nM,
"NCCCN1C(=O)C2(COc3cc4c(cc32)OCO4)c2ccccc21 (centres unmarked) [Example 16, 1′-(3-aminopropyl)spiro[furo[2,3-f][1,3]benzodioxole-7,3′-indol]-2′(1′H)-one]",> 1000 nM,
"O=C(NCCCN1C(=O)C2(COc3cc4c(cc32)OCO4)c2ccccc21)c1sccc1Cl (centres unmarked) [Example 17, 3-chloro-N-[3-(2′-oxospiro[furo[2,3-f][1,3]benzodioxole-7,3′-indol]-1′(2′H)-yl)propyl]thiophene-2-carboxamide]",10 to 100 nM,
"NCCN1C(=O)C2(COc3cc4c(cc32)OCO4)c2ccccc21 (centres unmarked) [Example 18, 1′-(2-aminoethyl)spiro[furo[2,3-f][1,3]benzodioxole-7,3′-indol]-2′(1′H)-one]",> 1000 nM,
"O=C(NCCN1C(=O)C2(COc3cc4c(cc32)OCO4)c2ccccc21)Nc1ccc(F)cc1 (centres unmarked) [Example 19, 1-(4-fluorophenyl)-3-[2-(2′-oxospiro[furo[2,3-f][1,3]benzodioxole-7,3′-indol]-1′(2′H)-yl)ethyl]urea]",> 1000 nM,
"CCCCCN1C(=O)C2(OCc3cc4c(cc32)OCO4)c2ccccc21 (centres unmarked) [Example 20, 1′-pentyl-7H-spiro[furo[3,4-f][1,3]benzodioxole-5,3′-indol]-2′(1′H)-one]",1 to 10 nM,113 to 115 °C
"CCCCCN1C(=O)C2(CC(=O)c3cc4c(cc32)OCO4)c2ccccc21 (centres unmarked) [Example 21, 1′-pentylspiro[indeno[5,6-d][1,3]dioxole-5,3′-indole]-2′,7(1′H,6H)-dione]",1 to 10 nM,
"CCCCCN1C(=O)C2(CCC(=O)c3cc4c(cc32)OCO4)c2ccccc21 (centres unmarked) [Example 22, 1-pentyl-6′H-spiro[indole-3,5′-naphtho[2,3-d][1,3]dioxole]-2,8′(1′H,7′H)-dione]",1 to 10 nM,
"CCCCCN1C(=O)C2(CCc3cc4c(cc32)OCO4)c2ccccc21 (centres unmarked) [Example 23, 1′-pentyl-6,7-dihydrospiro[indeno[5,6-d][1,3]dioxole-5,3′-indol]-2′(1′H)-one]",100 to 1000 nM,
"CCCCCN1C(=O)C2(CCCc3cc4c(cc32)OCO4)c2ccccc21 (centres unmarked) [Example 24, 1-pentyl-7′,8′-dihydro-6′H-spiro[indole-3,5′-naphtho[2,3-d][1,3]dioxol]-2(1H)-one]",1 to 10 nM,
"CCCCCN1C(=O)C2(CC(O)c3cc4c(cc32)OCO4)c2ccccc21 (centres unmarked) [Example 26, 7-hydroxy-1′-pentyl-6,7-dihydrospiro[indeno[5,6-d][1,3]dioxole-5,3′-indol]-2′(1′H)-one]",> 1000 nM,
"CCCCCN1C(=O)C2(CC(OC)c3cc4c(cc32)OCO4)c2ccccc21 (centres unmarked) [Example 27, 7-methoxy-1′-pentyl-6,7-dihydrospiro[indeno[5,6-d][1,3]dioxole-5,3′-indol]-2′(1′H)-one]",> 1000 nM,
"CCCCCN1C(=O)C2(CNC(=O)c3cc4c(cc32)OCO4)c2ccccc21 (centres unmarked) [Example 28, 1′-pentyl-6,7-dihydro-5H-spiro[1,3-dioxolo[4,5-d]isoquinoline-8,3′-indole]-2′,5(1′H)-dione]",> 1000 nM,
"CCCCCN1C(=O)C2(COc3cc4c(cc32)OCO4)c2c(C(=O)Nc3ccccn3)cccc21 (centres unmarked) [Example 29, 2′-oxo-1′-pentyl-N-pyridin-2-yl-1′,2′-dihydrospiro[furo[2,3-f][1,3]benzodioxole-7,3′-indole]-4′-carboxamide]",> 1000 nM,

SMILES,IC50 (sodium channel),melting point
"CCCCCN1C(=O)C2(COc3cc4c(cc32)OCO4)c2c(C#N)cccc21 (centres unmarked) [Example 30, 2′-oxo-1′-pentyl-1′,2′-dihydrospiro[furo[2,3-f][1,3]benzodioxole-7,3′-indole]-4′-carbonitrile]",10 to 100 nM,128 to 129 °C
"CCCCCCN1C(=O)C2(CC(=O)Oc3cc4c(cc32)OCO4)c2ccccc21 (centres unmarked) [Example 31, 1′-hexylspiro[1,3-dioxolo[4,5-g]chromene-8,3′-indole]-2′,6(1′H,7H)-dione]",> 1000 nM,
"CCCCCN1C(=O)C2(COc3ccccc32)c2ccccc21 (centres unmarked) [Example 32, 1′-pentylspiro[1-benzofuran-3,3′-indol]-2′(1′H)-one]",10 to 100 nM,
"CCCCCN1C(=O)C2(COc3cc(Nc4ccccc4)ccc32)c2ccccc21 (centres unmarked) [Example 33, 6-anilino-1′-pentylspiro[1-benzofuran-3,3′-indol]-2′(1′H)-one]",> 1000 nM,
"CCCCCN1C(=O)C2(COc3cc(N4CCOCC4)ccc32)c2ccccc21 (centres unmarked) [Example 34, 6-morpholin-4-yl-1′-pentylspiro[1-benzofuran-3,3′-indol]-2′(1′H)-one]",> 1000 nM,
"CCCCCN1C(=O)C2(COc3cc(Oc4ccccc4)ccc32)c2ccccc21 (centres unmarked) [Example 36, 1′-pentyl-6-phenoxyspiro[1-benzofuran-3,3′-indol]-2′(1′H)-one]",> 1000 nM,
"CCCCCN1C(=O)C2(COc3cc(-c4cccnc4)ccc32)c2ccccc21 (centres unmarked) [Example 37, 1′-pentyl-6-pyridin-3-ylspiro[1-benzofuran-3,3′-indol]-2′(1′H)-one]",> 1000 nM,
"CCCCCN1C(=O)C2(COc3cc(-c4ccncc4)ccc32)c2ccccc21 (centres unmarked) [Example 38, 1′-pentyl-6-pyridin-4-ylspiro[1-benzofuran-3,3′-indol]-2′(1′H)-one]",100 to 1000 nM,107 to 110 °C
"CCCCCN1C(=O)C2(COc3cc(S(C)(=O)=O)ccc32)c2ccccc21 (centres unmarked) [Example 39, 6-(methylsulfonyl)-1′-pentylspiro[1-benzofuran-3,3′-indol]-2′(1′H)-one]",> 1000 nM,
"CCCCCN1C(=O)C2(COc3cc(S(=O)(=O)c4ccccc4)ccc32)c2ccccc21 (centres unmarked) [Example 40, 1′-pentyl-6-(phenylsulfonyl)spiro[1-benzofuran-3,3′-indol]-2′(1′H)-one]",100 to 1000 nM,
"CCCCCN1C(=O)C2(COc3ccc(Oc4ccccc4)cc32)c2ccccc21 (centres unmarked) [Example 41, 1′-pentyl-5-phenoxyspiro[1-benzofuran-3,3′-indol]-2′(1′H)-one]",> 1000 nM,
"CCCCCN1C(=O)C2(COc3ccc(-c4cccnc4)cc32)c2ccccc21 (centres unmarked) [Example 48, 1′-pentyl-5-pyridin-3-ylspiro[1-benzofuran-3,3′-indol]-2′(1′H)-one]",100 to 1000 nM,
"CCCCCN1C(=O)C2(COc3ccc(-c4cncnc4)cc32)c2ccccc21 (centres unmarked) [Example 49, 1′-pentyl-5-pyrimidin-5-ylspiro[1-benzofuran-3,3′-indol]-2′(1′H)-one]",100 to 1000 nM,115 to 117 °C
"CCCCCN1C(=O)C2(COc3ccc(-c4ccncc4)cc32)c2ccccc21 (centres unmarked) [Example 50, 1′-pentyl-5-pyridin-4-ylspiro[1-benzofuran-3,3′-indol]-2′(1′H)-one]",100 to 1000 nM,
"CCCCCN1C(=O)C2(COc3ccc(C#N)cc32)c2ccccc21 (centres unmarked) [Example 51, 2′-oxo-1′-pentyl-1′,2′-dihydrospiro[1-benzofuran-3,3′-indole]-5-carbonitrile]",100 to 1000 nM,
"O=C(CN1C(=O)C2(COc3ccc(-c4cccnc4)cc32)c2ccccc21)Nc1ccccc1F (centres unmarked) [Example 52, N-(2-fluorophenyl)-2-(2′-oxo-5-pyridin-3-ylspiro[1-benzofuran-3,3′-indol]-1′(2′H)-yl)acetamide]",100 to 1000 nM,98 to 100 °C
"O=C1N(C(c2ccccc2)c2ccccc2)c2ccccc2C12COc1ccc(-c3cccnc3)cc12 (centres unmarked) [Example 54, 1′-(diphenylmethyl)-5-pyridin-3-ylspiro[1-benzofuran-3,3′-indol]-2′(1′H)-one]",> 1000 nM,204 to 207 °C
